# According to patent publication US5665745A, “Heterocyclic compounds and their preparation and use” (Eli Lilly and Company, priority 1995, dated 1997):
# Read-outs that look alike come from different tables or passages of the source.
# What was measured:
# [1] = target: muscarinic acetylcholine receptors; test: inhibition of specific binding of ^3 H-Oxotremorine-M (^3 H-Oxo); design: species or system rat (male Wistar; conditions: ^3 H-Oxotremorine 1.0 nM, rat cortex, 30 min. at 25° C.
# From the text: The pharmacological properties of the compounds of the invention can be illustrated by determining their capability to inhibit the specific binding of ^3 H-Oxotremorine-M (^3 H-Oxo). Birdsdall N. J. M., Hulme E. C., and Burgen A. S. V. (1980). "The Character of Muscarinic Receptors in Different Regions of the Rat Brain" Proc. Roy. Soc. London (Series B) 207,1.
# ^3 H-Oxo labels muscarinic receptor in the CNS (with a preference for agonist domains of the receptors). Three different sites are labeled by ^3 H-Oxo. […] Using the present experimental conditions only the high and medium affinity sites are determined.
# The inhibitory effects of compounds on ^3 H-oxo binding reflects the affinity for muscarinic acetylcholine receptors.
# (§1) All preparations are performed at 0°-4° C. unless otherwise indicated. Fresh cortex (0.1-1 g) from male Wistar rats (150-250 g) is homogenized for 5-10 seconds in 10 mL 20 nM Hepes pH: 7.4, with an Ultra-Turrax homogenizer. The homogenizer is rinsed with 10 mL of buffer and the combined suspension centrifuged for 15 min. at 40,000×g. The pellet is washed three times with buffer. In each step the pellet is homogenized as before in 2×10 mL of buffer and centrifuged for 10 min. at 40,000×g.
# The final pellet is homogenized in 20 mM Hepes pH: 7.4 (100 mL per g of original tissue) and used for binding assay. Aliquots of 0.5 mL is added 25 μL of test solution and 25 μL of ^3 H-Oxotremorine (1.0 nM, final concentration) mixed and incubated for 30 min. at 25° C. Non-specific binding is determined in triplicate using arecoline ([…], final concentration) as the test substance. After incubation samples are added 5 mL of ice-cold buffer and poured directly onto Whatman GF/C glass fiber filters under suction and immediately washed 2 times with 5 mL of ice-cold buffer. The amount of radioactivity on the filters are determined by conventional liquid scintillation counting. Specific binding is total binding minus non specific binding.
# Test substances are dissolved in 10 mL water (if necessary heated on a steam-bath for less than 5 min.) at a concentration of 2.2 mg/mL. […] The test value will be given as IC50 (the concentration (nM) of the test substance which inhibits the specific binding of ^3 H-oxo by 50%). IC50 =(applied test substance concentration) x(Cx /Co -Cx)nM where Co is specific binding in control assays and Cx is the specific binding in the test assay. (The calculations assume normal mass-action kinetics).
# [2] = target: T1, muscarinic receptors (M1 -site, pirenzepine sensitive site) (Rattus norvegicus, UniProt P08482); test: inhibition of ^3 HPRZ (pirenzepine, [N-methyl-^3 H]) binding to rat cerebral cortex membranes; design: species or system rat (male Wistar
# T1 construct: from tissue; host or cells: cerebral cortex membranes of male Wistar rats
# T1 sequence (P08482 1-460): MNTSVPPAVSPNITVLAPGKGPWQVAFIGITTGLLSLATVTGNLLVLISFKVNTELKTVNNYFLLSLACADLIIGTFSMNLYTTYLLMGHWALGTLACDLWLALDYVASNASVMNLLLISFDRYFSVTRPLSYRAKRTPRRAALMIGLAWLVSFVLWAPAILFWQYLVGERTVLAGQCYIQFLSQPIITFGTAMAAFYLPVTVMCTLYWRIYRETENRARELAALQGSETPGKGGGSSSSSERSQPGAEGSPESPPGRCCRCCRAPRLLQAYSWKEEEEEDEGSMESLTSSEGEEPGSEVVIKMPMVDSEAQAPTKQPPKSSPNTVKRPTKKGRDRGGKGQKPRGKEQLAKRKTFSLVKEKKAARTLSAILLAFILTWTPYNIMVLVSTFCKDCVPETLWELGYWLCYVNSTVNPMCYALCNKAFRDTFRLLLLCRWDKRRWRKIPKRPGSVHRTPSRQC
# Description: Furthermore the pharmacological properties of the compounds of the invention can also be illustrated by determining their capability to inhibit ^3 HPRZ (pirenzepine, [N-methyl-^3 H]) binding to rat cerebral cortex membranes.
# Pirenzepine binds selectively to subtype of muscarinic receptors. Historically the type is named the M1 -site, whereas pirenzepine sensitive site would be more appropriate.
# as §1, with “cortex ([…])” for “cortex (0.1-1 g)”, “rats (150-200” for “rats (150-250”, “5-10 s” for “5-10 seconds”, “20 mM” for “20 nM”, “with 2×10” for “with 10”, “in 3×10” for “in 2×10”
# The final pellet is homogenized in 20 mM Hepes pH: 7.4 (100 mL per g of original tissue) and used for binding assay. Aliquots of 0.5 mL is added 20 μl of test solution and 25 μL of ^3 HPRZ (1.0 nM, final conc.), mixed and incubated for 60 min. at 20° C. Non-specific binding is determined in triplicate using atropine (1 ,μg/mL, final conc.) as the test substance. After incubation samples are added 5 mL of ice-cold buffer and poured directly onto Whatman GF/C glass fiber filters under suction and immediately washed 2 times with 5 mL of ice-cold buffer. The amount of radioactivity on the filters are determined by conventional liquid scintillation counting. Specific binding is total binding minus non-specific binding.
# Test substances are dissolved in 10 mL water, at a concentration of 0.22 mg/mL.
# The test value will be given as IC50 (the concentration (nM) of the test substance which inhibits the specific binding of ^3 HPRZ by 50%). IC50 =(applied test substance concentration) x(Cx /Co -Cx)nM where Co is specific binding in control assays and Cx is the specific binding in the test assay. (The calculations assume normal mass-action kinetics).
# [3] = ^3 HPRZ 1.0 nM, rat cortex, 60 min. at 20° C., read-out: ^3 HPRZ IC50 (head from b208 on: Pir IC-50)
"IC50 [2, 3] [nM]",Structure (SMILES),IC50 [1] [nM],IC50 [2] [nM]
27,"Cc1ncsc1CCOc1nsnc1O[C@@H]1CN2CCC[C@H]1C2 (relative stereo) [Compound 171, (±)-endo-3-(2-(4-Methyl-1,3-thiazol-5-yl)ethoxy)-4-(1-azabicyclo[3.2.1]octyl-6-oxy)-1,2,5-thiadiazole]",19,
,"CCCCCSc1nsnc1OC1CN2CCC1CC2 (racemic) [Compound 15, (±)-3-Pentylthio-4-(1-azabicyclo[2.2.2]octyl-3-oxy)-1,2,5-thiadiazole]",1.6,2.3
4,"Fc1ccc(COc2nsnc2O[C@@H]2CN3CCC[C@H]2C3)cc1 (relative stereo) [Compound 194, (±)-endo-3-(4-Fluorobenzyloxy)-4-(1-azabicyclo[3.2.1]octyl-6-oxy)-1,2,5-thiadiazole]",2.1,
,"c1ccc(SCCOc2nsnc2OC2CN3CCC2CC3)cc1 (racemic) [Compound 126, (±)-3-(2-[Phenylthio]ethoxy)-4-(1-azabicyclo[2.2.2]octyl-3-oxy)-1,2,5-thiadiazole]",19,72
,"C=CCCOc1nsnc1OC1CN2CCC1CC2 (racemic) [Compound 108, (±)-3-(3-Butenyloxy)-4-(1-azabicyclo[2.2.2]octyl-3-oxy)-1,2,5-thiadiazole]",9.1,56.1
,"Fc1ccc(CCCSc2nsnc2OC2CN3CCC2CC3)cc1 (racemic) [Compound 73, (±)3-[3-(4-Fluorophenyl)propylthio]-4-[-3-(1-azabicyclo[2.2.2]octyloxy)]-1,2,5-thiadiazole]",4.1,6.5
,"CCCCCSc1nsnc1O[C@H]1CN2CCC1CC2 [Compound 38, (R)-3-Pentylthio-4-(1-azabicyclo[2.2.2]octyl-3-oxy)-1,2,5-thiadiazole]",1,1.9
0.65,"CCCCSc1nsnc1O[C@H]1CN2CCC[C@@H]1C2 (relative stereo) [Compound 70, (±)3-(1-Butylthio)-4-[endo-6-(1-azabicyclo[3.2.1]octyloxy)]-1,2,5-thiadiazole]",1.3,
45,"CCCCOc1nsnc1OC[C@@H]1CCCN1 [Compound 32, (S)-3-Butyloxy-4-(2-pyrrolidinylmethyloxy)-1,2,5-thiadiazole]",77,
18,"CCCCCSc1nsnc1O[C@H]1CN2CCC[C@H]1C2 (relative stereo) [Compound 23, (±)-exo-3-Pentylthio-4-(1-azabicyclo[3.2.1]octyl-6-oxy)-1,2,5-thiadiazole]",55,
12,"CCCCOc1nsnc1OC[C@@H]1CCCN1C [Compound 31, (S)-3-Butyloxy-4-(1-methyl-2-pyrrolidinylmethyloxy)-1,2,5-thiadiazole]",32,
,"FC(F)(F)C(F)(F)CSc1nsnc1OC1CN2CCC1CC2 (racemic) [Compound 20, (±)-3-(2,2,3,3,3-Pentafluoropropylthio)-4-(1-azabicyclo-[2.2.2]octyl-3-oxy)-1,2,5-thiadiazole]",2.6,4
3.5,"C1C[C@H]2CN(C1)C[C@H]2Oc1nsnc1OCC1CC1 (relative stereo) [Compound 182, (±)-endo-3-(cyclopropylmethoxy)-4-(1-azabicyclo[3.2.1]octyl-6-oxy)-1,2,5-thiadiazole]",0.6,
48,"CCCCOc1nsnc1OCCN(C)C [Compound 33, 3-Butyloxy-4-(2-(dimethylamino)ethoxy)-1,2,5-thiadiazole]",51,

Structure (SMILES),"IC50 [2, 3] [nM]",IC50 [1] [nM],IC50 [2] [nM]
"CCCCOc1nsnc1O[C@H]1C[C@@H]2CC[C@H]1N2 (relative stereo) [Compound 133, (±)-exo-3-Butyloxy-4-(7-azabicyclo[2.2.1]heptyl-3-oxy)-1,2,5-thiadiazole]",> 1000,> 1000,
"CCCCS(=O)(=O)c1nsnc1OC1CN2CCC1CC2 (racemic) [Compound 102, (±)-3-Butylsulfonyl-4-(1-azabicyclo[2.2.2]octyl-3-oxy)-1,2,5-thiadiazole]",187,378,
